# From patent publication US5486517A, “Benzimidazoles and imidazopyridines as central nervous system agents” (Warner-Lambert Company, priority 1994, dated 1996)
# Like-named read-outs stand apart in the source and are kept apart here.
# Legend:
# Human D3 Receptors = biological target: T1, Human D3 Receptors (Homo sapiens, UniProt P35462); assay: Inhibition of [^3 H]spiperone binding to human D3 receptors
# T1 construct: expressed in transfected cells
# Text: Dopamine D2 antagonists are established as antipsychotic agents. More recently, the dopamine D3 receptor has been identified. On the basis of the localization of the dopamine D3 receptor in the limbic area of the brain, a selective D3 antagonist should show antipsychotic activity but not have the neurological side effects of D2 antagonists. […] The above test methods are incorporated herein by reference.
# Human D2 Receptors = biological target: T2, Human D2 Receptors (Homo sapiens, UniProt P14416); assay: Inhibition of [^3 H]spiperone binding to human D2 receptors
# T2 construct: expressed in transfected cells
# Text: (§1) The compounds of Formula I are valuable dopaminergic agents. Dopamine D2 antagonists are established as antipsychotic agents. More recently, the dopamine D3 receptor has been identified. On the basis of the localization of the dopamine D3 receptor in the limbic area of the brain, a selective D3 antagonist should show antipsychotic activity but not have the neurological side effects of D2 antagonists. The tests employed indicate that compounds of Formula I bind selectively to the dopamine D3 receptor. Thus, the compounds of Formula I were tested for their ability to bind to dopamine receptors as measured by their inhibition of [^3 H]spiperone binding to the human D2 and D3 receptors in a receptor assay described by MacKenzie R. G., et al., Characterization of the human D3 dopamine receptor expressed in transfected cell lines, Eur. J. Pharmacol., 266:79 (1994); and for their ability to inhibit locomotor activity in mice and rats, a measure of antipsychotic activity, according to the assay described by McLean J. R., et al., Pharmacology, Biochemistry and Behavior, 8:97-99 (1978). The above test methods are incorporated herein by reference.
# [1] = system: Locomotor Activity in Rats; assay: Inhibition of locomotor activity in rats; assay type: in vivo; conditions: Rattus norvegicus, IP
# Text: as §1
# [2] = human D3, transfected cell lines, read-out: Inhibition of [^3 H]Spiperone Binding to Human D3 Receptors IC50
# [3] = human D2, read-out: Inhibition of [^3 H]Spiperone Binding to Human D2 Receptors IC50
# T2 sequence (P14416 whole entry): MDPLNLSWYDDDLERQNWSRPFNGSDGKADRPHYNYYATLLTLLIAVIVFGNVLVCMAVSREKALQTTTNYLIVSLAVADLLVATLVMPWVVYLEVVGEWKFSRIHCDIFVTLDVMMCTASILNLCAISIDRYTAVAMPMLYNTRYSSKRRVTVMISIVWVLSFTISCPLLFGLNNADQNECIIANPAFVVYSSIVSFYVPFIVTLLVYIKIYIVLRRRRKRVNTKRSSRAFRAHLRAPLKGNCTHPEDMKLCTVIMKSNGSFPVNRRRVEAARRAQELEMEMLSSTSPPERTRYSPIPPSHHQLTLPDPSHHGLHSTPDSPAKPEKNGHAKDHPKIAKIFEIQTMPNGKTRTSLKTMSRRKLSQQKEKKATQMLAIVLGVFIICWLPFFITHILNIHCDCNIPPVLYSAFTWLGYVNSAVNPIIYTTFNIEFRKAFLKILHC
# T1 sequence (P35462 whole entry): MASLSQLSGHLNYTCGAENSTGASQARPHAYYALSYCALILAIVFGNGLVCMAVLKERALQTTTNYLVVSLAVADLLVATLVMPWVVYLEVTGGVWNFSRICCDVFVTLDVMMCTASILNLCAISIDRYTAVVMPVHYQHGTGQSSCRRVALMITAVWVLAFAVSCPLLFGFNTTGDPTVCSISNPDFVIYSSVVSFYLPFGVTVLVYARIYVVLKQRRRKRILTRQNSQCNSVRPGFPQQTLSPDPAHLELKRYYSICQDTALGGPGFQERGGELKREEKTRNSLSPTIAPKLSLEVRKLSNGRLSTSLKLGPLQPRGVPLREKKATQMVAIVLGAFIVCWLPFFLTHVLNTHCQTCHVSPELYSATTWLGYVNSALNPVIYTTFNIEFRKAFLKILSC
SMILES,IC50 (Human D3 Receptors; [2]),IC50 (Human D2 Receptors; [3]),further results
"C(#Cc1ccc(-c2nc3ccccc3[nH]2)cc1)CCN1CCN(c2ccccc2)CC1 [Example 15, 2-[4-[4-(4-Phenyl-1-piperazinyl)-1-butynyl]phenyl]-1H-benzimidazole]",1.7 nM,581 nM,–
"c1ccc(N2CCN(CCCCOc3ccc(-c4nc5ccccc5[nH]4)cc3)CC2)cc1 [Example 16, 2-[4-[4-(4-Phenyl-1-piperazinyl)butoxy]phenyl]-1H-benzimidazole]",1.7 nM,46 nM,–
"c1cnc(N2CCN(CCCOc3ccc(-c4nc5ccccc5[nH]4)cc3)CC2)nc1 [Example 4, 2-[4-[3-[4-(2-Pyrimidinyl)-1-piperazinyl]propoxy]phenyl]-1H-benzimidazole]",–,269 nM,–
"CCCSc1ccccc1N1CCN(CCNC(=O)c2ccc(-c3nc4ccccc4[nH]3)cc2)CC1 [Example 19, 4-(1H-Benzimidazol-2-yl)-N-[2-[4-[2-(propylthio)phenyl]-1-piperazinyl]ethyl]benzamide]",19 nM,119 nM,–
"Clc1cccc(N2CCN(CCCOc3ccc(-c4nc5cccnc5[nH]4)cc3)CC2)c1Cl [Example 13, 2-[4-[3-[4-(2,3-Dichlorophenyl)-1-piperazinyl]propoxy]phenyl]-3H-imidazo[4,5-b]pyridine]",3 nM,329 nM,ED50 [1]: 4.2 mg/kg
"C1=C(c2ccccc2)CCN(CCCOc2ccc(-c3nc4ccccc4[nH]3)cc2)C1 [Example 8, 2-[4-[3-(3,6-Dihydro-4-phenyl-1(2H)-pyridinyl)propoxy]phenyl]-1H-benzimidazole]",–,672 nM,IC50 (Human D3 Receptors): 18 nM
"COc1ccccc1N1CCN(CCCOc2ccc(-c3nc4ccccc4[nH]3)cc2)CC1 [Example 10, 2-[4-[3-[4-(2-Methoxyphenyl)-1-piperazinyl]-propoxy]phenyl]-1H-benzimidazole]",–,–,IC50 (Human D2 Receptors): 8 nM
"O=C(NCCN1CCN(c2ccccc2)CC1)c1ccc(-c2nc3ccccc3[nH]2)cc1 [Example 18, 4-(1H-Benzimidazol-2-yl)-N-[2-(4-phenyl-1-piperazinyl)ethyl]benzamide]",–,281 nM,–
"C(=C/c1ccc(-c2nc3ccccc3[nH]2)cc1)/CCN1CCN(c2ccccc2)CC1 [Example 21, (Z)-2-[4-[4-(4-Phenyl-1-piperazinyl)-1-butenyl]phenyl]-1H-benzimidazole]",81 nM,100 nM,–
"COc1ccccc1N1CCN(CCNC(=O)c2ccc(-c3nc4ccccc4[nH]3)cc2)CC1 [Example 20, 4-(1H-Benzimidazol-2-yl)-N-[2-[4-(2-methoxyphenyl)-1-piperazinyl]ethyl]benzamide]",24 nM,55 nM,–
"CCCSc1ccccc1N1CCN(CCCOc2ccc(-c3nc4ccccc4[nH]3)cc2)CC1 [Example 7, 2-[4-[3-[4-[2-(Propylthio)phenyl]-1-piperazinyl]propoxy]phenyl]-1H-benzimidazole]",–,3.7 nM,–
"Clc1cccc(N2CCN(CCCOc3ccc(-c4nc5ccccc5[nH]4)cc3)CC2)c1Cl [Example 2, 2-[4-[3-[4-(2,3-Dichlorophenyl)-1-piperazinyl]propoxy]phenyl]-1H-benzimidazole]",1.7 nM,45 nM,–

# Continued, in another order:
IC50 (Human D3 Receptors; [2]),IC50 (Human D2 Receptors; [3]),SMILES,further results
–,70 nM,"c1ccc(N2CCN(CCCOc3ccc(-c4nc5ccccc5[nH]4)cc3)CC2)nc1 [Example 3, 2-[4-[3-[4-(2-Pyridinyl)-1-piperazinyl]propoxy]phenyl]-1H-benzimidazole]",–
16 nM,119 nM,"Fc1ccc(N2CCN(CCCOc3ccc(-c4nc5ccccc5[nH]4)cc3)CC2)cc1 [Example 6, 2-[4-[3-[4-(4-Fluorophenyl)-1-piperazinyl]propoxy]phenyl]-1H-benzimidazole]",–
–,1270 nM,"Clc1cccc(N2CCN(CCCOc3ccc(-c4nc5ccccc5[nH]4)cc3)CC2)c1 [Example 12, 2-[4-[3-[4-(3-Chlorophenyl)-1-piperazinyl]-propoxy]phenyl]-1H-benzimidazole]",–
–,784 nM,"Clc1ccc(N2CCN(CCCOc3ccc(-c4nc5ccccc5[nH]4)cc3)CC2)cc1 [Example 9, 2-[4-[3-[4-(4-Chlorophenyl)-1-piperazinyl]propoxy]phenyl]-1H-benzimidazole]",–
102 nM,2780 nM,"Cc1ccc(N2CCN(CCCOc3ccc(-c4nc5ccccc5[nH]4)cc3)CC2)cc1 [Example 5, 2-[4-[3-[4-(4-Methylphenyl)-1-piperazinyl]propoxy]phenyl]-1H-benzimidazole]",–
9.5 nM,219 nM,"Cn1c(-c2ccc(OCCCN3CCN(c4ccccc4)CC3)cc2)nc2ccccc21 [Example 14, 1-Methyl-2-[4-[3-(4-phenyl-1-piperazinyl)-propoxy]phenyl]-1H-benzimidazole]",–
1.6 nM,22 nM,"c1ccc(N2CCN(CCCNc3ccc(-c4nc5ccccc5[nH]4)cc3)CC2)cc1 [Example 17, N-[4-(1H-Benzimidazol-2-yl)phenyl]-4-phenyl-1-piperazine-3-propanamine]",–
–,265 nM,"COc1ccc(N2CCN(CCCOc3ccc(-c4nc5ccccc5[nH]4)cc3)CC2)cc1 [Example 11, 2-[4-[3-[4-(4-Methoxyphenyl)-1-piperazinyl]-propoxy]phenyl]-1H-benzimidazole]",–
1.3 nM,32 nM,"c1ccc(N2CCN(CCCCc3ccc(-c4nc5ccccc5[nH]4)cc3)CC2)cc1 [Example 22, 2-[4-[4-(4-Phenyl-1-piperazinyl)butyl]phenyl]-1H-benzimidazole]",–
1 nM,406 nM,"c1ccc(N2CCN(CCCOc3ccc(-c4nc5ccccc5[nH]4)cc3)CC2)cc1 [Example 1, 2-[4-[3-(4-Phenyl-1-piperazinyl)propoxy]phenyl]-1H-benzimidazole]",ED50 [1]: 2.3 mg/kg
